Experimental findings from patent publication US12384776B2, “Compounds and uses thereof” (Foghorn Therapeutics Inc., priority 2019, dated 2025) are described below.

Molecules are shown by their SMILES. pIC50: −log10 of the molar value.

The target in the assay is Nanoluciferase-BRD9 fusion protein (3×FLAG-NLuc-BRD9) in SYO-1 cells (Homo sapiens (Human), UniProt Q9H8M2). As to the kind of experiment: SYO1 BRD9 NanoLuc degradation assay. It counts as cell-based. The method in brief:
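Stable SYO-1 line expressing 3×FLAG-NLuc-BRD9, treated with 10-point 3-fold dilutions (top 1 μM final) for 6 hours. Nanoluciferase luminescence read with Nano-Glo reagent. % inhibition relative to DMSO (high control) and 1 μM reference BRD9 degrader (low control).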

Where [1] appears, read: SYO-1 cells expressing 3×FLAG-NLuc-BRD9, 6 hours incubation, top dose 1 μM.

Chain of Nanoluciferase-BRD9 fusion protein (3×FLAG-NLuc-BRD9) in SYO-1 cells (Q9H8M2 whole entry, the tested form may be a part): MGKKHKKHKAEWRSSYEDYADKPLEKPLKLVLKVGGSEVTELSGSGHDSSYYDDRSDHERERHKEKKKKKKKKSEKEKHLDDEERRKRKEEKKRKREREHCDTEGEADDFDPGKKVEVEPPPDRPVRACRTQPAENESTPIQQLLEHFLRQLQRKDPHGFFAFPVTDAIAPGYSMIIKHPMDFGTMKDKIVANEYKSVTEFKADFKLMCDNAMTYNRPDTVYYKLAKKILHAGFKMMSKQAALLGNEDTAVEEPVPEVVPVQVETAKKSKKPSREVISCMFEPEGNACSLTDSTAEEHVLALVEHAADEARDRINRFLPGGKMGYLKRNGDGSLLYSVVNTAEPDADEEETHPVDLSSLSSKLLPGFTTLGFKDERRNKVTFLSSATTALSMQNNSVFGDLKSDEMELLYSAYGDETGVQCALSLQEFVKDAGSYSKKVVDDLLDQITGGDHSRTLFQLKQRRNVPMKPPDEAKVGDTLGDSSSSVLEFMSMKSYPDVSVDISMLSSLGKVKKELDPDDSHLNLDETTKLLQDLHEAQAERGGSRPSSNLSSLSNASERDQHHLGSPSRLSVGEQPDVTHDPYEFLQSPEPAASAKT

For the compound `[2H]C([2H])([2H])NC(=O)N1CCc2c(-c3cc(OC)c(CN4CCC(CN5CCC6(CC5)CC(Oc5ccc7c(c5)C(=O)N(C5CCC(=O)NC5=O)C7=O)C6)CC4)c(OC)c3)cn(C)c(=O)c2C1` (centres unmarked) [Compound D47], the pIC50 under setting [1] was above 8.00. For the compound `COc1cc(-c2cn(C)c(=O)c3c2CCN(C(=O)NC2CC4(CCN(CCCOc5ccc6c(c5)C(=O)N(C5CCC(=O)NC5=O)C6=O)CC4)C2)C3)cc(OC)c1CN(C)C` (centres unmarked) [Compound D252], the pIC50 under setting [1] is 6.00 to 7.00.

Under setting [1], `COc1cc(-c2cn(C)c(=O)c3c2CCN(C(=O)NC2CC4(CCN(CCCOc5ccc6c(c5)C(=O)N(C5CCC(=O)NC5=O)C6=O)C4)C2)C3)cc(OC)c1CN(C)C` (centres unmarked) [Compound D262] had a negative-log IC50 (pIC50) of 6.00 to 7.00. The same measure, in the same setting: in the case of `CNC(=O)N1CCc2c(-c3cc(OC)c(CN4CCC5(CC4)CN(C(=O)CCCOc4ccc6c(c4)C(=O)N(C4CCC(=O)NC4=O)C6=O)CCO5)c(OC)c3)cn(C)c(=O)c2C1` (centres unmarked) [Compound D203] it was 7.00 to 8.00; in that of `CNC(=O)N1CCc2c(-c3cc(OC)c(CN4CCN(C5CCN(c6ccc7c(c6)C(=O)N(C6CCC(=O)NC6=O)C7=O)CC5)CC4)c(OC)c3)cn(C)c(=O)c2C1` (centres unmarked) [Compound D170], above 8.00; in that of `COc1cc(-c2cn(C)c(=O)c3c2CCN(C(=O)NCC2COC4(CCN(c5ccc6c(c5)C(=O)N(C5CCC(=O)NC5=O)C6=O)CC4)C2)C3)cc(OC)c1CN(C)C` (centres unmarked) [Compound D121], above 8.00.

On to `CNC(=O)N1CCc2c(-c3cc(OC)c(CN4CCC(CCN5CCN(c6cc7c(cc6F)CN(C6CCC(=O)NC6=O)C7=O)CC5)CC4)c(OC)c3)cn(C)c(=O)c2C1` (centres unmarked) [Compound D83], for which, under setting [1], the pIC50 was above 8.00. On the same count and under the same terms, in the case of `CNC(=O)N1CCc2c(-c3cc(OC)c(CN4CC5CC4CC5CN4CCN(c5ccc6c(c5)C(=O)N(C5CCC(=O)NC5=O)C6=O)CC4)c(OC)c3)cn(C)c(=O)c2C1` (centres unmarked) [Compound D129] it was 7.00 to 8.00; in that of `CNC(=O)N1CCc2c(-c3cc(OC)c(CN4CC(S(=O)(=O)NCCCCOc5cccc6c5C(=O)N(C5CCC(=O)NC5=O)C6=O)C4)c(OC)c3)cn(C)c(=O)c2C1` (centres unmarked) [Compound D281], 7.00 to 8.00. On the same count and under the same terms, in the case of `CNC(=O)N1CCc2c(-c3cc(OC)c(CN4CCC(CCN5CCN(c6ccc7c(c6)C(=O)N(C6CCC(=O)NC6=O)C7)CC5)CC4)c(OC)c3)cn(C)c(=O)c2C1` (centres unmarked) [Compound D69] it was above 8.00.

Regarding `CNC(=O)N1CCc2c(-c3cc(OC)c(CN(C)C(=O)CCCCCOc4cccc5c4C(=O)N(C4CCC(=O)NC4=O)C5=O)c(OC)c3)cn(C)c(=O)c2C1` (centres unmarked) [Compound D25, 5-[4-[(6-[[2-(2,6-dioxopiperidin-3-yl)-1,3-dioxoisoindol-4-yl]oxy]-N-methylhexanamido)methyl]-3,5-dimethoxyphenyl]-N,7-dimethyl-8-oxo-3,4-dihydro-1H-2,7-naphthyridine-2-carboxamide], the negative logarithm of the IC50 (pIC50) (SYO-1 cells, 6 hours, Table 6A) is above 8.00. Turning to `[2H]C([2H])([2H])n1cc(-c2cc(OC)c(CN3CCN(CCC4CCN(c5ccc6c(c5)CN(C5CCC(=O)NC5=O)C6=O)CC4)CC3)c(OC)c2)c2c(c1=O)CN(C(=O)NCC(F)F)CC2` (centres unmarked) [Compound D317], the pIC50 (SYO-1 cells, 6 hours, Table 6C) is above 8.00.

Consider `[2H]C([2H])([2H])n1cc(-c2cc(OC)c(CN3CCC(CN4CCC5(CC4)CC(Oc4ccc6c(c4)C(=O)N(C4CCC(=O)NC4=O)C6=O)C5)CC3)c(OC)c2)c2c(c1=O)CN(C(=O)NC)CC2` (centres unmarked) [Compound D44], for which the negative logarithm of the IC50 (pIC50) under setting [1] is above 8.00. The same measure, in the same setting: in the case of `COc1cc(-c2cn(C)c(=O)c3c2CCN(C(=O)NCCN2CCC4(CCN4c4ccc5c(c4)C(=O)N(C4CCC(=O)NC4=O)C5=O)C2)C3)cc(OC)c1CN(C)C` (centres unmarked) [Compound D185] it was 6.00 to 7.00; in that of `CNC(=O)N1CCc2c(-c3cc(OC)c(CN4CCC(CCN5CCN(c6cc7c(cc6F)C(=O)N(C6CCC(=O)NC6=O)C7)CC5)CC4)c(OC)c3)cn(C)c(=O)c2C1` (centres unmarked) [Compound D84], above 8.00. The same measure, in the same setting: as for `CNC(=O)N1CCc2c(-c3cc(OC)c(CN4CC5(CCC(N6Cc7cc8c(cc7C6)C(=O)N(C6CCC(=O)NC6=O)C8=O)CC5)C4)c(OC)c3)cn(C)c(=O)c2C1` (centres unmarked) [Compound D176], the figure is 7.00 to 8.00; as for `CNC(=O)N1CCc2c(-c3cc(OC)c(CN4CCC(CCN5CCN(c6ccc7c(c6)C(=O)N(C6CCC(=O)NC6=O)C7=O)CC5)C4)c(OC)c3)cn(C)c(=O)c2C1` (centres unmarked) [Compound D148], 7.00 to 8.00. Take `CNC(=O)N1CCc2c(-c3cc(OC)c(CN4CCN(CCC5CCN(c6ccc7c(c6)C(=O)N(C6CCC(=O)NC6=O)C7)CC5)CC45CC5)c(OC)c3)cn(C)c(=O)c2C1` (centres unmarked) [Compound D314]: for the setting “SYO-1 cells, 6 hours, Table 6C”, the negative-log IC50 (pIC50) was above 8.00.

On to `CNC(=O)N1CCc2c(-c3cc(OC)c(C(C)N4CC(CN5CCC6(CC5)CN(c5ccc7c(c5)C(=O)N(C5CCC(=O)NC5=O)C7)C6)C4)c(OC)c3)cn(C)c(=O)c2C1` (centres unmarked) [Compound D59], for which the pIC50 under setting [1] was 7.00 to 8.00. The same measure, in the same setting: in the case of `CNC(=O)N1CCc2c(-c3cc(OC)c(CN4CC(N(C)c5ccc6c(c5)C(=O)N(C5CCC(=O)NC5=O)C6)C4)c(OC)c3)cn(C)c(=O)c2C1` (centres unmarked) [Compound D53] it was 7.00 to 8.00.

`COc1cc(-c2cn(C)c(=O)c3c2CCCN3)cc(OC)c1CN1CCC2(CC1)CN(c1ccc3c(c1)C(=O)N(C1CCC(=O)NC1=O)C3=O)C2` (centres unmarked) [Compound D351] showed a negative-log IC50 (pIC50) (SYO-1 cells, 6 hours, Table 6C) of at most 8.00.

In the case of `COc1cc(-c2cn(C)c(=O)c3c2CCN(C(=O)NC2CC4(CCN(CCOc5ccc6c(c5)C(=O)N(C5CCC(=O)NC5=O)C6=O)CC4)C2)C3)cc(OC)c1CN(C)C` (centres unmarked) [Compound D224], under setting [1], the pIC50 is above 8.00.

For the compound `CNC(=O)N1CCc2c(-c3cc(OC)c(CN4CCN(CCC5CCN(c6ccc7c(c6)C(=O)N(C6CCC(=O)NC6=O)C7=O)CC5)C(C)C4)c(OC)c3)cn(C)c(=O)c2C1` (centres unmarked) [Compound D100], under setting [1], the negative-log IC50 (pIC50) is above 8.00. As for `CNC(=O)N1CCc2c(-c3cc(OC)c(CN4CC(CN5CC6(CCN(c7ccc8c(c7)C(=O)N(C7CCC(=O)NC7=O)C8=O)C6)C5)C4)c(OC)c3)cn(C)c(=O)c2C1` (centres unmarked) [Compound D167], under setting [1], the pIC50 was 7.00 to 8.00. Under setting [1], `CNC(=O)N1CCc2c(-c3cc(OC)c(CC4CCN(CCN5CCN(c6ccc7c(c6)C(=O)N(C6CCC(=O)NC6=O)C7=O)CC5)CC4)c(OC)c3)cn(C)c(=O)c2C1` (centres unmarked) [Compound D130] gave a pIC50 above 8.00. As for `CNC(=O)N1CCc2c(-c3cc(OC)c(CN4CCN(CCC5CCN(c6ccc7c(c6)CN(C6CCC(=O)NC6=O)C7=O)CC5)CC45CCC5)c(OC)c3)cn(C)c(=O)c2C1` (centres unmarked) [Compound D321], the pIC50 (SYO-1 cells, 6 hours, Table 6C) was above 8.00. Same read-out and setting: in the case of `COc1cc(-c2cn(C)c(=O)c3c2CCC3)cc(OC)c1-c1ccc2c(c1)C(=O)N(C1CCC(=O)NC1=O)C2` (centres unmarked) [Compound D374] it was above 8.00. Regarding `COc1cc(-c2cn(C)c(=O)c3c2CCN(C(=O)NC2CC2)C3)cc(OC)c1CN1CCC(CCN2CCN(c3ccc4c(c3)CN(C3CCC(=O)NC3=O)C4=O)CC2)CC1` (centres unmarked) [Compound D85], the pIC50 under setting [1] was above 8.00.

The compound `CNC(=O)N1CCc2c(-c3cc(OC)c(CN(C)CC(=O)NCCOCCOc4cccc5c4C(=O)N(C4CCC(=O)NC4=O)C5=O)c(OC)c3)cn(C)c(=O)c2C1` (centres unmarked) [Compound D13, 5-(4-[[([[2-(2-[[2-(2,6-dioxopiperidin-3-yl)-1,3-dioxoisoindol-4-yl]oxy]ethoxy)ethyl]carbamoyl]methyl)(methyl)amino]methyl]-3,5-dimethoxyphenyl)-N,7-dimethyl-8-oxo-3,4-dihydro-1H-2,7-naphthyridine-2-carboxamide] had a pIC50 (SYO-1 cells, 6 hours, Table 6A) below 6.00. Under setting [1], `CNC(=O)N1CCc2c(-c3cc(OC)c(CN4CCN(CCN5CCC(c6ccc7c(c6)CN(C6CCC(=O)NC6=O)C7=O)CC5)CC4)c(OC)c3)cn(C)c(=O)c2C1` (centres unmarked) [Compound D72] had a pIC50 above 8.00. As for `COc1cc(-c2cn(C)c(=O)c3c2CCN(C(=O)NC2CCC24CCN(CCCOc2ccc5c(c2)C(=O)N(C2CCC(=O)NC2=O)C5=O)CC4)C3)cc(OC)c1CN(C)C` (centres unmarked) [Compound D237], under setting [1], the negative logarithm of the IC50 (pIC50) is at most 6.00.

On to `CNC(=O)N1CCc2c(-c3cc(OC)c(CN4CCC(CCN5CCN(c6cc7c(c(F)c6F)CN(C6CCC(=O)NC6=O)C7=O)CC5)CC4)c(OC)c3)cn(C)c(=O)c2C1` (centres unmarked) [Compound D75], for which the negative-log IC50 (pIC50) under setting [1] is 7.00 to 8.00. Take `CNC(=O)N1CCc2c(-c3cc(OC)c(CN4CC(C(N5CCC6(CC5)CN(c5ccc7c(c5)C(=O)N(C5CCC(=O)NC5=O)C7)C6)C(F)(F)F)C4)c(OC)c3)cn(C)c(=O)c2C1` (centres unmarked) [Compound D334]: the negative logarithm of the IC50 (pIC50) (SYO-1 cells, 6 hours, Table 6C) was above 8.00. `CNC(=O)N1CCc2c(-c3cc(F)c(CN4CCC(CCN5CCN(c6ccc7c(c6)C(=O)N(C6CCC(=O)NC6=O)C7=O)CC5)CC4)c(OC)c3)cn(C)c(=O)c2C1` (centres unmarked) [Compound D91] gave a negative-log IC50 (pIC50) under setting [1] above 8.00. For the compound `COc1cc(-c2cn(C)c(=O)c3c2CCN(C(=O)NCC2CC4(CCN(CCCOc5ccc6c(c5)C(=O)N(C5CCC(=O)NC5=O)C6=O)CC4)CO2)C3)cc(OC)c1CN(C)C` (centres unmarked) [Compound D233], the negative-log IC50 (pIC50) under setting [1] is 6.00 to 7.00. `CNC(=O)N1CCc2c(-c3cc(OC)c(C4CN(c5ccc6c(c5)CN(C5CCC(=O)NC5=O)C6=O)C4)c(OC)c3)cn(C)c(=O)c2C1` (centres unmarked) [Compound D331] gave a negative logarithm of the IC50 (pIC50) (SYO-1 cells, 6 hours, Table 6C) of at most 8.00. In turn, `CNC(=O)N1CCc2c(-c3cc(OC)c(CN4CCN(CCC5CCN(c6ccc7c(c6)C(=O)N(C6CCC(=O)NC6=O)C7)CC5)CC4(C)C)c(OC)c3)cn(C)c(=O)c2C1` (centres unmarked) [Compound D309] had a pIC50 (SYO-1 cells, 6 hours, Table 6C) above 8.00. Take `COc1cc(-c2cn(C)c(=O)c3c2CCN(C(=O)NCCN(C)CCNC(=O)COc2ccc4c(c2)CN(C2CCC(=O)NC2=O)C4=O)C3)cc(OC)c1CN(C)C` (centres unmarked) [Compound D290]: the pIC50 under setting [1] was at most 6.00. Under “SYO-1 cells, 6 hours, Table 6C”, `[2H]C([2H])([2H])n1cc(-c2cc(OC)c(CN3[C@H](C)CN(CCC4CCN(c5ccc6c(c5)C(=O)N(C5CCC(=O)NC5=O)C6)CC4)C[C@H]3C)c(OC)c2)c2c(c1=O)CN(C(=O)NC)CC2` (some centres unmarked) [Compound D319] showed a pIC50 above 8.00. For the compound `CNC(=O)N1CCc2c(-c3cc(OC)c(CN4CCOC(CCN5CCN(c6ccc7c(c6)C(=O)N(C6CCC(=O)NC6=O)C7=O)CC5)C4)c(OC)c3)cn(C)c(=O)c2C1` (centres unmarked) [Compound D152], the negative-log IC50 (pIC50) under setting [1] was above 8.00. Still for that read-out and setting: as for `CNC(=O)N1CCc2c(-c3cc(OC)c(CN4CCC(CCN5CCN(C67CC8CC(CC(C8)C6)C7)CC5)CC4)c(OC)c3)cn(C)c(=O)c2C1` [Compound D74], the figure is at most 6.00.
